From patent publication US10898609B2, “Tissue decellularization methods” (priority 2015, dated 2021)

Experiments:
Type in all cases: cell-based, Sprague Dawley rats
[1] = test system: peripheral nerve; assay: Total DNA content of decellularized peripheral nerve, Picogreen DNA assay; conditions: 1 day
Protocol: Peripheral nerves were harvested from Sprague Dawley rats and decellularized according to an apoptosis-assisted protocol using 5 μM camptothecin in non-supplemented media at 37° C. for 1 day. Tissue in media without camptothecin, an apoptotic agent, was used as a control. Apoptotic agent treatment was succeeded by washes in saline buffered solutions to optimize cell removal. Furthermore, the tissue was treated with 75 u/mL DNAse for 24 hours to ensure DNA removal. The degree of apoptosis, cellular removal, and matrix preservation was assessed using immunochemistry on nerve tissue sections and fluorescence imaging (FIG. 2). Antibodies used to identify apoptosis, cell removal, and tissue preservation include those against active caspase 3 (Abcam); neurofilament (RT-97, DSHB) and S100 (Dako); and laminin (Sigma), respectively. […] FIGS. 2B and 2C show nerves treated with 5 μM for 1 day, washed with a hypertonic, and either washed with a hypertonic solution or treated for 24 hours with DNAse, respectively. […] FIGS. 2E and 2F show treatment with higher camptothecin (10 μM), again for 1 day, and washed similarly to tissue in FIGS. 2B and 2C. These images depict 1) apoptosis induction is necessary prior to washing to effectively remove cellular components and 2) combing apoptosis induction with washes in non-isotonic solutions achieves cellular removal of peripheral nerve tissue. Total DNA content was quantified using a Picogreen DNA assay (Life Technologies) according to manufacturer's instructions.

[2] = test system: active caspase 3; assay: Immunochemistry for active caspase 3 on nerve tissue sections; conditions: 10 μM camptothecin, 2 days, 37° C., ex vivo nerve; vs media control
Protocol: (§1) Peripheral nerves were harvested from Sprague Dawley rats and decellularized according to an apoptosis-assisted protocol using 10 μM camptothecin in non-supplemented media at 37° C. for 2 days. Tissue in media without camptothecin was used as a control. Apoptotic agent treatment was succeeded by washes in saline buffered solutions to optimize cell removal. The degree of apoptosis, cellular removal, and matrix preservation was assessed using immunochemistry on nerve tissue sections and fluorescence imaging. Antibodies used to identify apoptosis, cell removal, and tissue preservation include those against active caspase 3 (Abcam); neurofilament (RT-97, DSHB) and S100 (Dako); and laminin (Sigma), respectively. […] Total DNA content was quantified using a Picogreen DNA assay (Life Technologies) according to manufacturer's instructions.

[3] = test system: peripheral nerve; assay: TUNEL assay of apoptosis-mediated DNA fragmentation in nerve tissue; conditions: 10 μM camptothecin, 2 days, 37° C., ex vivo nerve; vs media control
Protocol: as §1

SMILES: CC[C@@]1(O)C(=O)OCc2c1cc1n(c2=O)Cc2cc3ccccc3nc2-1 [camptothecin]
- reduction in DNA content compared to fresh nerve ([1]; 5 μM camptothecin, 37° C., hypertonic and hypotonic washes): 71.9%
- reduction in DNA content compared to fresh nerve ([1]; 5 μM camptothecin, hypotonic wash replaced with DNAse treatment (75 u/mL, 24 hours)): 95.1%
- reduction in DNA content compared to fresh nerve ([1]; 10 μM camptothecin, hypertonic and hypotonic washes): 57.3%
- reduction in DNA content compared to fresh nerve ([1]; 10 μM camptothecin, hypotonic wash replaced with DNAse treatment (75 u/mL, 24 hours)): 95.8%
- active caspase 3 (early mediator of apoptosis) [2]: caspase 3 activation
- DNA fragmentation (TUNEL staining) [3]: DNA fragmentation
